Like-named read-outs stand apart in the source and are kept apart here.
What was measured:
[1] = test system: hyaluronic acid synthesis; experiment: Hyaluronic acid assay (ELISA) in fibroblast culture supernatant; assay type: cell-based, human
Description: At confluence, the fibroblasts were trypsinized and seeded in 6-well plates at 0.08×10^6 cells per well in DMEMc 10% FCS. After 24 hours of culturing, the medium was replaced with DMEMc 1% FCS.
After 24 hours of culturing, 2 ml of medium with or without active agent were added. The active agents were diluted to the concentrations chosen following cytotoxicity tests in DMEMc 1% FCS culture medium.
Aliquots were stored at −80° C. until assayed. The cell monolayers were washed with PBS and 500 μl of 0.1N NaOH were added. The cell lyzate was stored at −20° C. until protein assay.
The amount of hyaluronic acid in the various samples was determined by ELISA (Enzyme-Linked Immunosorbent Assay) using a TECO@kit. This kit is a sensitive sandwich assay which uses microplates coated with hyaluronic acid binding protein (HABP) and HRP-conjugated HABP binding protein for detection. The HRP-conjugated HABP binding protein binds to the hyaluronic acid contained in the sample, and then reacts with the substrate. The color intensity is proportional to the HA content of the sample.
100 μl of standard or 100 μl of sample diluted to 1:50 were added to each well. The plate was incubated for 2 hours at room temperature, with agitation. After washing the plate, 100 μl of HRBP-HRP conjugate were added to each well. The plate was incubated for 30 minutes at room temperature, with agitation. After washing the wells, 100 μl of TMB substrate were added. The plate was incubated for 30 minutes at room temperature, in the dark and with agitation. The reaction was stopped by adding 100 μl of stop solution per well. Optical density readings were immediately taken at 450 nm.
The calibration curve was plotted, representing OD as a function of hyaluronic acid concentration. A regression curve was then plotted and the amounts of hyaluronic acid contained in the samples were determined by means of the equation of this regression curve. The hyaluronic acid concentrations are expressed in ng/mg of protein.
A calibration range (0-2 mg/ml) was established using a solution of bovine serum albumin. 20 μl of each point of the calibration or sample range were placed in duplicate in the wells of a 96-well plate. 200 μl of Pierce reagent were added and the plate was incubated for 30 minutes at 37° C. The absorbance was read immediately at 550 nm (MultiSkan FC spectrophotometer, Thermo).
Significance is retained only when p<0.05.

[2] = test system: Fibroblasts from healthy skin (FS)
Description: Fibroblasts from healthy skin (FS) are cultured from biopsies performed on a patient, on a skin explant derived from surgery and considered as surgical waste. The conventional explantation technique is used for fibroblast extraction. The explants are cultured in Dulbecco's modified Eagle's medium supplemented with 10% fetal calf serum (FCS), 40 mg/l gentamicin and 2 mg/l fungizone (DMEMc) at 37° C., in a humid atmosphere and in the presence of 5% CO2.
The study of cell viability in the presence of the active principles to be tested is performed by means of an MTT assay. MTT is a tetrazolium salt whose ring is transformed by mitochondrial dehydrogenases. The yellow substrate is transformed into a dark blue product by living cells, but not by dead cells or the culture medium. This colorimetric test allows the color intensity to be linked to the number of living cells. The absorbance at 550 nm is directly proportional to the number of living fibroblasts. Cytotoxicity occurs when the cell viability is less than 80% relative to the control.
The active agents in powder form were taken up in 100% DMSO so as to obtain the stock solutions. […] After 24 hours of culturing, the active principles to be tested were added. Twelve concentrations of each active principle were tested (n=10/concentration). The active agents were dissolved directly in the culture medium from the stock solutions. After 24 hours of culturing in the presence of the active agents, an MTT assay was performed.
Following the cytotoxicity results of the two active agents alone, a second cytotoxicity test was performed with the mixture. For each mixture, three concentrations were tested (n=10/concentration): • C1: highest concentration • C2: ½ dilution • C3: […]
The values are expressed as a percentage relative to the control, plus or minus the standard error of the distribution of the means (SEM). A one-factor analysis of variance is performed, followed if necessary by a Fisher test. Significance is retained only when p<0.05.

beta-defensin-2 (hBD-2) = experiment: hBD-2 release from keratinocytes, ELISA; assay type: cell-based, human; details: for hBD-2 % control / hBD-2 Mean / hBD-2: 72 hours; for hBD-2: single values
Description: More specifically, the effect of these compounds was evaluated on the release of beta-defensin-2 (hBD -2) by Enzyme-Linked Immunosorbent Assay (ELISA). Prior to this, a preliminary cytotoxicity test was performed using a standard WST-8 reduction assay to determine the concentrations to be tested.
(§1) • Cell type: Normal human epidermal keratinocytes (NHEK), used at the third passage • Culture conditions: 37° C., 5% CO2 • Culture medium: Keratinocyte-SFM optimized for the test, supplemented with Epidermal Growth Factor and pituitary extract
The keratinocytes were seeded in 96-well plates and cultured in culture medium for 24 hours. The medium was then replaced with culture medium containing or not (control) the compounds to be tested or the reference cytokine mixture (IL-17+IL-22+TNF-α at 5 ng/ml each). The cells were then incubated for 72 hours. All the experimental conditions were performed in n=3.
The inter-group comparisons were made using the unpaired bilateral Student's t-test. The statistical analyses can be interpreted if n>5; however for n<5, the calculated data are provided purely as a guide.

[3] = test system: Normal human epidermal keratinocytes (NHEK); experiment: Preliminary test of cytotoxicity, WST-8 reduction and morphological observations; assay type: cell-based; details: 72 h
Description: as §1
• Cell type: NHEK in culture medium • Incubation time: 72 hours • Evaluation parameters: WST-8 reduction and morphological microscopic observations.
At the end of the treatment, the cells were incubated in the presence of WST-8 (a highly water-soluble tetrazolium salt), reduced to a water-soluble, orange-colored product (formazan) by succinate dehydrogenase (a mitochondrial enzyme). This transformation is proportional to the number of living cells and their metabolic activity. The optical density (OD) was measured with a spectrophotometer at 450 nm (VERSAmax, Molecular Devices).
Percentage viability: viability (%)=(OD compound/OD control)×100

For `O=C(/C=C/c1ccc(O)c(O)c1)O[C@@H]1C[C@](O)(C(=O)O)C[C@@H](O)[C@H]1O` [GPCB07, chlorogenic acid], the “improvement of hyaluronic acid (HA) content of skin cells reported in Ref. 18” value ([1]; 100 μM, FIG. 4) was “could not be reproduced”, the “decrease of hyaluronic acid synthesis” value ([1]; tested alone, 100 μM, 48 hours, relative to control) was “about 20%” and the “maximum non-cytotoxic concentration retained” value ([2]; female, human, 24 h) was 100 µM. The “Viability (%/Ctrl)” value ([2]; female, human, 24 h, 0.5 μM) was 95.14 %/Ctrl, the “Viability (%/Ctrl)” value ([2]; female, human, 24 h, 1 μM) was 94.89 %/Ctrl and the “Viability (%/Ctrl)” value ([2]; female, human, 24 h, 5 μM) was 101.75 %/Ctrl. For the same molecule, the “Viability (%/Ctrl)” value ([2]; female, human, 24 h, 10 μM) was 89.63 %/Ctrl, the “Viability (%/Ctrl)” value ([2]; female, human, 24 h, 25 μM) was 100.28 %/Ctrl and the “Viability (%/Ctrl)” value ([2]; female, human, 24 h, 50 μM) was 99.64 %/Ctrl. For the same molecule, the “Viability (%/Ctrl)” value ([2]; female, human, 24 h, 75 μM) was 103.28 %/Ctrl, the “Viability (%/Ctrl)” value ([2]; female, human, 24 h, 100 μM) was 100.41 %/Ctrl and the “effect on beta-defensin-2 release from human epidermal keratinocytes” value (beta-defensin-2 (hBD-2)) was “no effect”. The hBD-2 % control (beta-defensin-2 (hBD-2); 0.0033%) was <73 % control, the “hBD-2 Mean” value (beta-defensin-2 (hBD-2); 0.0033%) was <8 pg/mL and the “hBD-2” value (beta-defensin-2 (hBD-2); 0.0033%) was <8 pg/mL. The hBD-2 % control (beta-defensin-2 (hBD-2); 0.01%) was <73 % control, the “hBD-2 Mean” value (beta-defensin-2 (hBD-2); 0.01%) was <8 pg/mL and the “hBD-2” value (beta-defensin-2 (hBD-2); 0.01%) was <8 pg/mL. For the same molecule, the hBD-2 % control (beta-defensin-2 (hBD-2); 0.03%) was <73 % control, the “hBD-2 Mean” value (beta-defensin-2 (hBD-2); 0.03%) was <8 pg/mL and the “hBD-2” value (beta-defensin-2 (hBD-2); 0.03%) was <8 pg/mL.

`O=C(O)[C@H]1O[C@@H](Oc2cc3oc(-c4ccccc4)cc(=O)c3c(O)c2O)[C@H](O)[C@@H](O)[C@@H]1O` [GPCB09, baicalin] was tested, and the “effect on HA content relative to a control test” value ([1]; 25 μM, FIG. 4) was “improve HA content”, the “increase of hyaluronic acid synthesis” value ([1]; tested alone, 25 μM, 48 hours, relative to control) was “about 30%” and the “Viability (%/Ctrl)” value ([2]; 0.5 μM, 24 hours) was 99.82 %/Ctrl. The “Viability (%/Ctrl)” value ([2]; 1.0 μM, 24 hours) was 98.27 %/Ctrl, the “Viability (%/Ctrl)” value ([2]; 5.0 μM, 24 hours) was 101.92 %/Ctrl and the “Viability (%/Ctrl)” value ([2]; 10.0 μM, 24 hours) was 100.76 %/Ctrl. For the same molecule, the “Viability (%/Ctrl)” value ([2]; 50.0 μM, 24 hours) was 86.65 %/Ctrl, the “Viability (%/Ctrl)” value ([2]; 100.00 μM, 24 hours) was 21.80 %/Ctrl and the “decrease in cell viability relative to the control” value ([2]; 75 and 100 μM) was “very significant”. For the same molecule, the “concentration causing a significant reduction in cell viability relative to the control” value ([2]; 24 hours, MTT) was ≥ 50 µM, the “maximum non-cytotoxic concentration retained” value ([2]; active agent alone) was 25 µM and the “Viability Mean (%)” value ([3]; 0.0004 mg/mL) was 99%. For the same molecule, the “Viability Mean (%)” value ([3]; 0.0012 mg/mL) was 96%, the “Viability Mean (%)” value ([3]; 0.0037 mg/mL) was 87% and the “Viability Mean (%)” value ([3]; 0.011 mg/mL) was 66%. For the same molecule, the “Viability Mean (%)” value ([3]; 0.033 mg/mL) was 35%, the “Viability Mean (%)” value ([3]; 0.098 mg/mL) was 21% and the “Viability Mean (%)” value ([3]; 0.287 mg/mL) was 19%. For the same molecule, the “Viability Mean (%)” value ([3]; 0.38 mg/mL) was 1%, the “effect on beta-defensin-2 release from human epidermal keratinocytes” value (beta-defensin-2 (hBD-2)) was “no effect” and the hBD-2 % control (beta-defensin-2 (hBD-2); 0.0001%) was <73 % control. For the same molecule, the “hBD-2 Mean” value (beta-defensin-2 (hBD-2); 0.0001%) was <8 pg/mL, the “hBD-2” value (beta-defensin-2 (hBD-2); 0.0001%) was <8 pg/mL and the hBD-2 % control (beta-defensin-2 (hBD-2); 0.0003%) was <73 % control. The “hBD-2 Mean” value (beta-defensin-2 (hBD-2); 0.0003%) was <8 pg/mL, the “hBD-2” value (beta-defensin-2 (hBD-2); 0.0003%) was <8 pg/mL and the hBD-2 % control (beta-defensin-2 (hBD-2); 0.001%) was <73 % control. The “hBD-2 Mean” value (beta-defensin-2 (hBD-2); 0.001%) was <8 pg/mL and the “hBD-2” value (beta-defensin-2 (hBD-2); 0.001%) was <8 pg/mL.
